This passage reports IC50 results from patent US7582645B2, “Pyrimidine derivatives for treatment of hyperproliferative disorders” (Bayer Pharmaceuticals Corporation, priority 2003, dated 2009).

Counter-ions that a name gives are not always drawn.

The test system of one assay is HCT116 cells. Kind of assay: HCT116 cytotoxic activity assay (Alamar Blue, 72 h). The assay is classed as cell-based. Conditions: Homo sapiens, HCT-116, 72 h compound exposure, greater than 500 nM but less than or equal to 2 μM. The protocol:
Representative compounds of this invention were tested for cytotoxicity using the above-described assay procedure with the following results: […]
Background: Alamar Blue is a resazurin reagent that responds to reducing activity.
A word on the IC50: it is the point on the concentration scale where inhibition reaches its midpoint. Regarding `NC(=O)c1cc(Oc2ccc(Nc3cc(-c4ccc(Cl)cc4)nc(N)n3)cc2)ccn1` [Example 257, 4-(4-{[2-amino-6-(4-chlorophenyl)pyrimidin-4-yl]amino}phenoxy) pyridine-2-carboxamide], the IC50 is 500 to 2000 nM.

`N#Cc1cc(Oc2ccc(Nc3cc(-c4cc(F)cc(F)c4)nc(N)n3)cc2)ccn1` [Example 276, 4-(4-{[2-amino-6-(3,5-difluorophenyl)pyrimidin-4-yl]amino}phenoxy)pyridine-2-carbonitrile] had an IC50 of 500 to 2000 nM.

For `CN1CCN(c2ccnc(Oc3ccc(Nc4cc(-c5ccccc5)nc(N)n4)cc3)c2)CC1` [Example 107, N4*-(4-{[4-(4-methylpiperazin-1-yl)pyridin-2-yl]oxy}phenyl)-6-phenylpyrimidine-2,4-diamine], the IC50 was in the range of 500 to 2000 nM.

Regarding `N#CCc1ccc(-c2cc(Nc3ccc(Oc4ccnc(C#N)c4)cc3)nc(N)n2)cc1` [Example 235, 4-[4-({2-amino-6-(4-(cyanomethyl)phenyl]pyrimidin-4-yl}amino)phenoxy]pyridine-2-carbonitrile], the IC50 was in the range of 500 to 2000 nM.

`Nc1nc(Nc2ccc(Oc3ccnc(C(F)(F)F)c3)cc2)cc(-c2ccc(NC(=O)CCC(=O)O)cc2)n1` [Example 148, 4-[(4-{2-amino-6-[(4-{[2-(trifluoromethyl)pyridin-4-yl]oxy}phenyl)amino]pyrimidin-4-yl}phenyl)amino]-4-oxobutanoic acid] registered an IC50 of 500 to 2000 nM.

Consider `N#Cc1cccc(-c2cc(Nc3ccc(Oc4ccnc(C(F)(F)F)c4)cc3)nc(N)n2)c1` [Example 198, 3-{2-amino-6-[(4-{[2-(trifluoromethyl)pyridin-4-yl]oxy}phenyl)amino]pyrimidin-4-yl}benzonitrile], for which the IC50 was 500 to 2000 nM.

As for `NC(=O)c1cc(Oc2cccc(Nc3cc(-c4cccnc4)nc(N)n3)c2)ccn1` [Example 297, 4-{3-[(2-amino-6-pyridin-3-ylpyrimidin-4-yl)amino]phenoxy} pyridine-2-carboxamide], the IC50 is 500 to 2000 nM.

The compound `N#CCc1ccc(-c2cc(Nc3cccc(Oc4ccnc(C(N)=O)c4)c3)nc(N)n2)cc1` [Example 294, 4-[3-({2-amino-6-[4-(cyanomethyl)phenyl]pyrimidin-4-yl}amino)phenoxy]pyridine-2-carboxamide] displayed an IC50 of 500 to 2000 nM.

As for `CCOC(=O)c1cc(Oc2cncc(Cl)c2)ccc1Nc1cc(-c2ccccc2)nc(N)n1` [Example 60, ethyl 2-[(2-amino-6-phenylpyrimidin-4-yl)amino]-5-[(5-chloropyridin-3-yl)oxy]benzoate], the IC50 was 500 to 2000 nM.

For `N#Cc1cc(Oc2ccc(Nc3cc(-c4cccc(O)c4)nc(N)n3)cc2)ccn1` [Example 226], the IC50 lay within 500 to 2000 nM.

The same assay, now with this note: Homo sapiens, HCT-116, 72 h compound exposure, greater than 2 μM.
`NC(=O)c1cc(Oc2cccc(Nc3cc(-c4ccc[nH]4)nc(N)n3)c2)ccn1` [Example 301, 4-(3-{[2-amino-6-(1H-pyrrol-2-yl)pyrimidin-4-yl]amino}phenoxy) pyridine-2-carboxamide] showed an IC50 above 2000 nM.

As for `NC(=O)c1cc(Oc2ccc(Nc3cc(-c4cccc(OC(F)(F)F)c4)nc(N)n3)cc2)ccn1` [Example 277, 4-[4-({2-amino-6-[3-(trifluoromethoxy)phenyl]pyrimidin-4-yl}amino)phenoxy]pyridine-2-carboxamide], the IC50 was above 2000 nM.

Compound `Cc1cc(Oc2ccc(Nc3cc(-c4ccc(OC(F)(F)F)cc4)nc(N)n3)cc2)ccn1` [Example 307, N4*-{4-[(2-methylpyridin-4-yl)oxy]phenyl}-6-[4-(trifluoromethoxy)phenyl]pyrimidine-2,4-diamine] returned an IC50 above 2000 nM.

Regarding `COc1ccc(-c2cc(Nc3ccc(Oc4ccnc(C#N)c4)cc3)nc(N)n2)cc1` [Example 225, 4-(4-{[2-amino-6-(4-methoxyphenyl)pyrimidin-4-yl]amino}phenoxy) pyridine-2-carbonitrile 4-(4-{[6-amino-2-(4-methoxyphenyl)pyrimidin-4-yl]amino}phenoxy) pyridine-2-carbonitrile], the IC50 is above 2000 nM.

In the case of `COc1cc(-c2cc(Nc3ccc(Oc4ccnc(C#N)c4)cc3)nc(N)n2)ccc1NC(=O)OC(C)(C)C` [Example 178, tert-butyl {4-[2-amino-6-({4-[(2-cyanopyridin-4-yl)oxy]phenyl}amino)pyrimidin-4-yl]-2-methoxyphenyl}carbamate], the IC50 was above 2000 nM.

In turn, `Cc1ccc(-c2cc(Nc3cccc(Oc4ccnc(C(N)=O)c4)c3)nc(N)n2)cc1` [Example 295, 4-(3-{[2-amino-6-(4-methylphenyl)pyrimidin-4-yl]amino}phenoxy) pyridine-2-carboxamide] had a half-maximal inhibitory concentration (IC50) above 2000 nM.

Turning to `Nc1nc(Nc2ccc(Oc3cc(N4CCCCC4)ccn3)cc2)cc(-c2ccccc2)n1` [Example 106, 6-phenyl-N4*-{4-[(4-piperidin-1-ylpyridin-2-yl)oxy]phenyl}pyrimidine-2,4-diamine], the IC50 was above 2000 nM.

Consider `CC(=O)c1ccc(Oc2ccc(Nc3cc(-c4ccccc4)nc(N)n3)cn2)cc1` [Example 87, 1-[4-({5-[(2-amino-6-phenylpyrimidin-4-yl)amino]pyridin-2-yl}oxy)phenyl]ethanone], for which the IC50 is above 2000 nM.

`CCCCOc1cc(Oc2ccc(Nc3cc(-c4ccccc4)nc(N)n3)cc2)ccn1` [Example 83, N4*-{4-[(2-butoxypyridin-4-yl)oxy]phenyl}-6-phenylpyrimidine-2,4-diamine] returned an IC50 above 2000 nM.

With `COc1ccc(-c2cc(Nc3ccc(Oc4ccnc(C#N)c4)cc3)nc(N)n2)cc1OC` [Example 224, 4-(4-{[2-amino-6-(3,4-dimethoxyphenyl)pyrimidin-4-yl]amino}phenoxy)pyridine-2-carbonitrile], the IC50 is above 2000 nM.

Staying with this assay, now noted: Homo sapiens, HCT-116, 72 h compound exposure, less than or equal to 500 nM.
In the case of `Nc1nc(Nc2ccc(Oc3ccnc(C(F)(F)F)c3)cc2)cc(-c2cccnc2)n1` [Example 213, 6-pyridin-3-yl-N4*-(4-{[2-(trifluoromethyl)pyridin-4-yl]oxy}phenyl)pyrimidine-2,4-diamine], the IC50 is at most 500 nM.

`Nc1nc(Nc2ccc(Oc3ccnc(C(F)(F)F)c3)cc2F)cc(-c2ccccc2)n1` [Example 67, N4*-(2-fluoro-4-{[2-(trifluoromethyl)pyridin-4-yl]oxy}phenyl)-6-phenylpyrimidine-2,4-diamine] gave a half-maximal inhibitory concentration (IC50) of at most 500 nM.

Turning to `Nc1ccc(-c2cc(Nc3ccc(Oc4ccnc(C(F)(F)F)c4)cc3)nc(N)n2)cc1` [Example 164, 6-(4-aminophenyl)-N4*-(4-{[2-(trifluoromethyl)pyridin-4-yl]oxy}phenyl) pyrimidine-2,4-diamine hydrochloride], the IC50 was at most 500 nM.

For `COc1ccc(-c2cc(Nc3ccc(Oc4ccnc(C#N)c4)cc3)nc(N)n2)cn1` [Example 223, 4-(4-{[2-amino-6-(6-methoxypyridin-3-yl)pyrimidin-4-yl]amino}phenoxy) pyridine-2-carbonitrile], the IC50 is at most 500 nM.

Consider `Nc1nc(Nc2ccc(Cc3ccnc(C(F)(F)F)c3)cc2)cc(-c2ccccc2)n1` [Example 33, 6-phenyl-N^4-[4-(2-trifluoromethyl-pyridin-4-ylmethyl)-phenyl]-pyrimidin-2,4-diamine], for which the IC50 is at most 500 nM.

In the case of `Cc1ccccc1-c1cc(Nc2ccc(Oc3ccnc(C#N)c3)cc2)nc(N)n1` [Example 246, 4-(4-{[2-amino-6-(2-methylphenyl)pyrimidin-4-yl]amino}phenoxy) pyridine-2-carbonitrile], the IC50 is at most 500 nM.

The compound `Nc1nc(Nc2ccc(Oc3ccnc(C(=O)N4CCOCC4)c3)cc2)cc(-c2ccccc2)n1` [Example 21, N^4-(4-{[2-(morpholin-4-ylcarbonyl)pyridin-4-yl]oxy}phenyl)-6-phenylpyrimidine-2,4-diamine] showed an IC50 of at most 500 nM.

The compound `COc1cc(-c2cc(Nc3ccc(Oc4ccnc(N5CCOCC5)c4)cc3)nc(N)n2)ccc1O` [Example 143, 4-[2-amino-6-({4-[(2-morpholin-4-ylpyridin-4-yl)oxy]phenyl}amino)pyrimidin-4-yl]-2-methoxyphenol] came in with an IC50 of at most 500 nM.

The compound `N#CCc1ccc(-c2cc(Nc3ccc(Oc4ccnc(C(F)(F)F)c4)cc3)nc(N)n2)cc1` [Example 210, (4-{2-amino-6-[(4-{[2-(trifluoromethyl)pyridin-4-yl]oxy}phenyl)amino]pyrimidin-4-yl}phenyl) acetonitrile] had an IC50 of at most 500 nM.

With `Nc1nc(Nc2ccc(Oc3ccnc(N4CC[C@@H](O)C4)c3)cc2)cc(-c2ccccc2)n1` [Example 146, (3R)-1-(4-{4-[(2-amino-6-phenylpyrimidin-4-yl)amino]phenoxy}pyridin-2-yl)pyrrolidin-3-ol], the IC50 was at most 500 nM.

The compound `Cc1cc(Oc2ccc(Nc3cc(-c4ccccc4)nc(N)n3)cc2F)ccn1` [Example 7, N^4-{3-fluoro-4-[(2-methylpyridin-4-yl)oxy]phenyl}-6-phenylpyrimidine-2,4-diamine] returned an IC50 of at most 500 nM.

For `Nc1nc(Nc2ccc(Oc3ccnc(C(F)(F)F)c3)cc2)cc(-c2ccc(OS(N)(=O)=O)cc2)n1` [Example 52, sulfamic acid, 4-{2-amino-6-[4-(2-trifluoromethylpyridin-4-yloxy)phenylamino]pyrimidin-4-yl}phenyl ester], the IC50 is at most 500 nM.

`COc1ccc(-c2cc(Nc3ccc(Oc4ccnc(C(F)(F)F)c4)cc3)nc(N)n2)cc1N` [Example 168, 6-(3-amino-4-methoxyphenyl)-N4*-(4-{[2-(trifluoromethyl)pyridin-4-yl]oxy}phenyl) pyrimidine-2,4-diamine] yielded an IC50 of at most 500 nM.

Turning to `COc1ccc(C(C)C)cc1-c1cc(Nc2ccc(Oc3ccnc(C(N)=O)c3)cc2)nc(N)n1` [Example 262, 4-(4-{[2-amino-6-(5-isopropyl-2-methoxyphenyl)pyrimidin-4-yl]amino}phenoxy)pyridine-2-carboxamide], the IC50 was at most 500 nM.

For the compound `COc1cccc(-c2cc(Nc3cccc(Oc4ccnc(C(N)=O)c4)c3)nc(N)n2)c1` [Example 292, 4-(3-{[2-amino-6-(3-methoxyphenyl)pyrimidin-4-yl]amino}phenoxy) pyridine-2-carboxamide], the IC50 was at most 500 nM.

As to `Nc1nc(Nc2ccc(Oc3ccnc(Cl)c3)cc2)cc(-c2ccc(F)cc2)n1` [Example 114, N4*-{4-[(2-chloropyridin-4-yl)oxy]phenyl}-6-(4-fluorophenyl)pyrimidine-2,4-diamine], the IC50 was at most 500 nM.
